Assay results: patent US6552060B1, “Asymmetric disulfides and methods of using same” (Prolx Pharmaceuticals, Inc., priority 1997, dated 2003)
pIC50: −log10 of the molar value.

Test system: EMT6 mouse mammary tumor cells
Test: Cytotoxicity against EMT6 cells in culture (MTT)
Conditions: read-out: Disulfide Cytotoxicity (IC50), Table 5, 48 h exposure

Structure (SMILES)	pIC50
CCC(C)SSc1nc(N)nc2[nH]cnc12 (stereo not drawn) [Compound F-6]	4.64
Cc1nnc(SSC(C)C(C)O)s1 (stereo not drawn) [Compound M-3]	≤ 3.74
CC(SSC(C)C(C)O)c1ccccc1 (stereo not drawn) [Compound M-22]	≤ 3.74
CC(CSSC(C)C(C)O)C(=O)N1CCCC1C(=O)O (stereo not drawn) [Compound M-28]	≤ 3.74
O=C(O)CCSSc1nc2ccccc2[nH]1 [Compound N-8]	≤ 3.74
ClCCCSSc1nc2ccccc2[nH]1 [Compound H-8]	4.09
CC(O)C(C)SSc1ncccc1C(=O)O (stereo not drawn) [Compound M-23]	4.02
CC(O)C(C)SSc1nc2ccccc2o1 (stereo not drawn) [Compound M-12]	4.54
CC(C)SSC(C)c1ccccc1 (stereo not drawn) [Compound E-22]	< 3.74
ClCCCSSc1ccccc1 [Compound H-13]	< 3.74
O=[N+]([O-])c1ccc2[nH]c(SSCCCCl)nc2c1 [Compound H-10]	4.23
CC(O)C(C)SSc1ncnc2[nH]cnc12 (stereo not drawn) [Compound M-7]	≤ 3.74
Cc1ccc2[nH]c(SSCCCCl)nc2c1 [Compound H-9]	4.18
COc1cccc(CSSCCCCl)c1 [Compound H-20]	4.04
CC(C)SSCC(C)C(=O)N1CCCC1C(=O)O (stereo not drawn) [Compound E-28]	< 3.74
CC(C)SSc1ncnc2[nH]cnc12 [Compound E-7]	< 3.74
CC(C)SSc1nc(N)nc2[nH]cnc12 [Compound E-6]	4.38
CC1CCC(C(C)(C)SSCCC(=O)O)C(=O)C1 (stereo not drawn) [Compound N-26]	≤ 3.74
Cc1ccc2[nH]c(SSC(C)C(C)O)nc2c1 (stereo not drawn) [Compound M-9]	4.12
CC(C)SSc1nc2cc([N+](=O)[O-])ccc2[nH]1 [Compound E-10]	4.54
CC(O)C(C)SSc1nc(N)nc2[nH]cnc12 (stereo not drawn) [Compound M-6]	4.49
Cn1ccnc1SSCCCCl [Compound H-2]	< 3.74
ClCCCSSc1ncc[nH]1 [Compound H-1]	< 3.74

Target: T1, TR/Trx (Homo sapiens, UniProt Q16881)
T1 sequence (Q16881 1-499 isoform Q16881-5): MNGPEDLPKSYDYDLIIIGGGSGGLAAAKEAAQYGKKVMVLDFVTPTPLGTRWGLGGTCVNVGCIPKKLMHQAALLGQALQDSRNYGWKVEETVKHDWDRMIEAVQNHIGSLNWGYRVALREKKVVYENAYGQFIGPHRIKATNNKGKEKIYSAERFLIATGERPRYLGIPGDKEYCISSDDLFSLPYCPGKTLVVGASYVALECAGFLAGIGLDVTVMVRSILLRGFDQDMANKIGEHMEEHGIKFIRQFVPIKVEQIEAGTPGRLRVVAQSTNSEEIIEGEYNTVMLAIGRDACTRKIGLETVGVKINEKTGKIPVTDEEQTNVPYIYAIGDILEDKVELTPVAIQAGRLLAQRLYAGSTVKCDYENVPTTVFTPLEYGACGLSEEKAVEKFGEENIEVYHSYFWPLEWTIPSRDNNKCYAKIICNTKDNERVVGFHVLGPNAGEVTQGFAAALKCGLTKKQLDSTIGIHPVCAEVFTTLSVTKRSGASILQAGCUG
Test: Thioredoxin dependent reduction of insulin by human thioredoxin reductase and NADPH (IC50 TR/Trx, 96 well)
Assay type: biochemical
Conditions: Table 3; read-out: IC50 TR/Trx (converted)
Source text: When referring to the particular system being analyzed IC50 is typically followed by an abbreviation referring to that system (i.e., IC50 TR/Trx for the above described thioredoxin redox system which is comprised of thioredoxin reductase and thioredoxin).
A second plate was used for the assessment of biological activity or as a biological screen. Aliquots of disulfides dissolved in DMSO, were be transferred into 96 well plates. The assay to assess their ability to inhibit thioredoxin reductase measures the thioredoxin dependent reduction of insulin by human thioredoxin reductase and NADPH. The effects of the disulfides on the reduction of Trx by TR were measured spectrophotometrically by following the reduction of NADPH at 339 nm with insulin as the final electron acceptor in a buffered mixture of TR, Trx, NADPH and insulin.

Structure (SMILES)	IC50 [µM]
CC(C)CSSc1ncccc1C(=O)O [Compound G-23]	57.5

Same assay, conditions: Table 4

Structure (SMILES)	Disulfide inhibition of TR/Trx (IC50 TR/Trx) [µg/mL]
CCSSc1ncccc1C(=O)O [Compound A-23]	35
CCCCSSc1nc2ccccc2[nH]1 [Compound C-8]	57
COc1cccc(CSSC(C)c2ccccc2)c1 (stereo not drawn) [Compound J-20]	74
CCCSSc1nccn1C [Compound B-2]	75
Cc1nnc(SSCc2ccccc2)s1 [Compound I-3]	9
CC(SSc1nc(N)nc2[nH]cnc12)c1ccccc1 (stereo not drawn) [Compound J-6]	38
CC(SSCc1ccccc1)c1ccccc1 (stereo not drawn) [Compound J-19]	>232
CCCCSSc1nccc(C)n1 [Compound C-24]	48
CCSSc1nnc(C)s1 [Compound A-3]	75
CC(C)SSc1nnc(S)s1 [Compound E-4]	35
Cn1ccnc1SSCc1ccccc1 [Compound I-2]	100
CCCCSSCc1ccccc1 [Compound C-19]	>189
CCCCSSC1CCCC1 [Compound C-27]	51
CC(SSc1nc2ccccc2[nH]1)c1ccccc1 (stereo not drawn) [Compound J-8]	8
Cc1ccc2[nH]c(SSC(C)c3ccccc3)nc2c1 (stereo not drawn) [Compound J-9]	43
CCCCSSC(C)c1ccccc1 (stereo not drawn) [Compound C-22]	194
CCCCSSCc1cccc(OC)c1 [Compound C-20]	61
CCCCSSc1ncnc2[nH]cnc12 [Compound C-7]	33
O=C(O)c1cccnc1SSCc1ccccc1 [Compound I-23]	35
Cc1ccnc(SSCc2ccccc2)n1 [Compound I-24]	35
CCCSSc1nnc(C)s1 [Compound B-3]	85
CCCSSc1nnc(S)s1 [Compound B-4]	35
Cc1ccnc(SSC(C)c2ccccc2)n1 (stereo not drawn) [Compound J-24]	67
CCCCSSCc1ccc(OC)cc1 [Compound C-21]	179
CC(SSc1nc2cc([N+](=O)[O-])ccc2[nH]1)c1ccccc1 (stereo not drawn) [Compound J-10]	43
CCCCSSc1nc2cc([N+](=O)[O-])ccc2[nH]1 [Compound C-10]	>76

Structure (SMILES)	Disulfide inhibition of TR/Trx (IC50 TR/Trx) [µg/mL]
Sc1nnc(SSCc2ccccc2)s1 [Compound I-4]	5
CCCCSSc1ncccc1C(=O)O [Compound C-23]	65
Cc1nnc(SSCC(C)C)s1 [Compound G-3]	29
CC(C)CSSC(C)c1ccccc1 (stereo not drawn) [Compound G-22]	201
CC(SSc1nc2ccccc2o1)c1ccccc1 (stereo not drawn) [Compound J-12]	16
COc1ccc(CSSC(C)c2ccccc2)cc1 (stereo not drawn) [Compound J-21]	74
CC(C)CSSc1nc2ccccc2o1 [Compound G-12]	52
CCSSc1nnc(S)s1 [Compound A-4]	35
CC(SSc1ncccc1C(=O)O)c1ccccc1 (stereo not drawn) [Compound J-23]	89
CCCCSSc1nc2ccccc2o1 [Compound C-12]	42
CC(C)CSSc1nc2ccccc2[nH]1 [Compound G-8]	18
CC(SSc1nnc(S)s1)c1ccccc1 (stereo not drawn) [Compound J-4]	42
CC(C)CSSCc1ccccc1 [Compound G-19]	>189
Cc1ccc2[nH]c(SSCC(C)C)nc2c1 [Compound G-9]	11
CCCCSSc1nnc(C)s1 [Compound C-3]	9
Cc1nnc(SSC(C)c2ccccc2)s1 (stereo not drawn) [Compound J-3]	11
CCCCSSc1nc2cc(C)ccc2[nH]1 [Compound C-9]	12
COc1ccc(CSSCC(C)C)cc1 [Compound G-21]	>203
CCC(C)SSCc1ccc(OC)cc1 (stereo not drawn) [Compound F-21]	60
CCCCSSc1nc(N)nc2[nH]cnc12 [Compound C-6]	33
Cc1ccnc(SSCC(C)C)n1 [Compound G-24]	65
CCSSc1nccc(C)n1 [Compound A-24]	90
CC(SSc1nccn1C)c1ccccc1 (stereo not drawn) [Compound J-2]	12
CC(C)CSSc1nccn1C [Compound G-2]	125
CCCCSSc1nnc(S)s1 [Compound C-4]	56
